Source: patent US10294226B2, “Small molecule inhibitors of the JAK family of kinases” (Janssen Pharmaceutica NV, priority 2016, dated 2019)

How the values were obtained:
[1] = target: JAK3-JH1JH2 (Homo sapiens (Human), UniProt P52333); test: Enzymatic inhibition assay (HTMS); assay type: biochemical; conditions: 150 μM ATP; read-out: JAK3_I_JH1JH2 IC50
Excerpt: (§1) JAK1-JH1JH2 (574-1154 with a His-GST Tag and a C-terminal tev (ENLYFQ-G) cleavage site), JAK3-JH1JH2 (512-1124 with a GST Tag and a C-terminal tev (ENLYFQ-G) cleavage site), and Tyk2-JH1JH2 (8H_tev_580-1182-C936A-C1142A with a C-terminal tev (ENLYFQ-G) cleavage site) were purified internally. […] LC/MS grade water and acetonitrile (ACN), were purchased from HoneyWell, Burdick & Jackson (Muskegon, Mich., USA). Dimethylsulfoxide 99.8% (DMSO) and trifluoroacetic acid 99.5% (TFA) were purchased from EMD Chemical (Gibbstown, N.J., USA). Adenosine triphosphate (ATP), 4-morpholinepropanesulfonic acid (MOPS), magnesium chloride (MgCl2), ethylenediaminetetraacetic acid (EDTA), dithiothreitol (DTT), formic acid>95% (FA) and Tween-20 were purchased from Sigma (St Louis, Mo., USA). 384-well polypropylene plates, Cat#781280 were purchased from Greiner (Monroe, N.C.), RapidFire™ cartridge A C4 Column (Agilent Technologies, Santa Clara, Calif.).
(§2) The HTMS experiments were performed in positive ionization mode on a RapidFire 300 instrument (Agilent Technologies, Santa Clara, Calif.), coupled with an ABSiex QTrap 4000 system with an Electrospray Ionization source (RF-MS) (Concord, ON, Canada). […] The entire system was operated using the RapidFire software interfaced with Analyst software for the mass spectrometer.
(§3) 11-point dosing series were made for each compound by serially diluting 1:3 or 1:4 in DMSO, with point 12 being a DMSO control. From the serial dilution plates, sample was transferred to a 384 wells assay plate (#781280, Greiner, Monroe, N.C.) using Labcyte Echo (Sunnyvale, Calif.), or Biosero ATS (San Diego, Calif.). The compounds were tested in duplicate. Column 12 was used for positive controls, and column 24 contained negative controls with no enzyme added. A compound from our internal collection, with inhibitory activity for JAK isoforms, was used as a reference compound. The final concentration of DMSO was ≤0.25% in a 20 μL reaction. The enzyme reaction was initiated by the addition of 10 μL of enzyme and ATP mixture to 10 μL of substrate solution prepared in reaction buffer (50 mM MOPS pH 7.5, 10 mM MgCl2, 1 mM EDTA, 2 mM DTT, 0.002% Tween-20). The Tyk2 enzyme was pre-incubated with 2 mM ATP for 30 min prior to the reaction initiation. Immediately after the addition of the enzyme to the reaction mixture, the plate was centrifuged at 1000 rpm for 1 minute and incubated at 25° C. for 45 minutes for JAK3 and 90 minutes for JAK1, JAK2 and Tyk2. The reaction was quenched by the addition of 20 μL of 0.5% TFA containing 0.15 μM of internal standard peptide using Multidrop Combi reagent dispenser (Thermo Scientific, Waltham, Mass.). […] After the quench, the assay plate was centrifuged at 3000 rpm for 3 minutes and sealed with pierceable aluminum foil (Cat#06644-001, Agilent) using a PlateLoc (Agilent Technologies, Santa Clara, Calif.). The plates then were transferred on to the RapidFire for the MS analysis. Compound inhibition was assessed by a decrease of the phosphorylated product levels in sample wells compared to the non-inhibited enzyme reaction.
(§4) The sample analysis on the RapidFire was performed using a mobile phase A1 consisting of Water/TFA/FA (100:0.01:0.1, v/v/v), a mobile phase B1 consisting of ACN/Water/TFA/FA (80:20:0.01:0.1, v/v/v). […] The samples were aspirated directly from the 384-well assay plate and delivered onto RF-MS microscale solid-phase C4 extraction cartridge (Type A). The undesired component such as salt, cofactor, detergent and large protein were washed out and the retained analytes (substrate, product and IS) were coeluted directly onto the AB Siex Qtrap 4000 system.

[2] = target: JAK1-JH1JH2 (Homo sapiens (Human), UniProt P23458); test: Enzymatic inhibition assay (HTMS); assay type: biochemical; conditions: 12.5 μM ATP; read-out: JAK1_JH1JH2 IC50
Sequence of JAK1-JH1JH2 (P23458 574-1154): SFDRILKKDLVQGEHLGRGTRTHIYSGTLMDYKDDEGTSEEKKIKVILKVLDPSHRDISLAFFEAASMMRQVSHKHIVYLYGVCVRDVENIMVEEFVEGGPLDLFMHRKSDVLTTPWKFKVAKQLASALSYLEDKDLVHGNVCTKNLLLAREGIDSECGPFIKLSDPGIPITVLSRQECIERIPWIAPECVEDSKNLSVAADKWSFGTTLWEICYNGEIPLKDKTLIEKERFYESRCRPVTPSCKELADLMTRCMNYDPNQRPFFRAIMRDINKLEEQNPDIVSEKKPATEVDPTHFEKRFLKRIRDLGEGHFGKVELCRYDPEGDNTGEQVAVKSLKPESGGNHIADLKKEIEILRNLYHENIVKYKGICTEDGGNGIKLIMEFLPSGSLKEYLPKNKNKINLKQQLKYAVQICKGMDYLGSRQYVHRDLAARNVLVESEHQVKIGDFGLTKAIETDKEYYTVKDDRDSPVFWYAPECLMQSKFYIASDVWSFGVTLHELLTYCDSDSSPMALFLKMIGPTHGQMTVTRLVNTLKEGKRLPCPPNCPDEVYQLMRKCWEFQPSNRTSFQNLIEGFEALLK
Excerpt: as §1, §2, §3, §4

[3] = target: JAK2-JH1JH2 (Homo sapiens (Human), UniProt O60674); test: Enzymatic inhibition assay (HTMS); assay type: biochemical; conditions: 30 μM ATP; read-out: JAK2_I_JH1JH2 IC50
Sequence of JAK2-JH1JH2 (O60674 532-1132): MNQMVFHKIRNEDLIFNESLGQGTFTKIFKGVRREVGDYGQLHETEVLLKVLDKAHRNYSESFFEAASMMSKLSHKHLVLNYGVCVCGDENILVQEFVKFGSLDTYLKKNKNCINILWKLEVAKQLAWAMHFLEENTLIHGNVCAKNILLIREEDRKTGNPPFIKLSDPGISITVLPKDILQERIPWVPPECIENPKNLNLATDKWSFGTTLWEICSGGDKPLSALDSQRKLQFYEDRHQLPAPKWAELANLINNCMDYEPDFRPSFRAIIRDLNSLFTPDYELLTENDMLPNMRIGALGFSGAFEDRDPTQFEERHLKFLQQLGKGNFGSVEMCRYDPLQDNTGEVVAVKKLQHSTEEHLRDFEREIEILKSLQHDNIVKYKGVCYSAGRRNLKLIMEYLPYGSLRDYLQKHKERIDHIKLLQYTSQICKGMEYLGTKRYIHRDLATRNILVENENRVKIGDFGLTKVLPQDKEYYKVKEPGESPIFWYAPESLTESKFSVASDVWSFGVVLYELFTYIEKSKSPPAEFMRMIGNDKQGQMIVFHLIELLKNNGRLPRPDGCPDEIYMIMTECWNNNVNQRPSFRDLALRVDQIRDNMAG
Excerpt: as §1, §2, §3, §4

[4] = target: Tyk2-JH1JH2 (Homo sapiens (Human), UniProt P29597, C1142A/C936A); test: Enzymatic inhibition assay (HTMS); assay type: biochemical; conditions: 50 μM ATP; read-out: Tyk2_I_JH1JH2 IC50
Sequence of Tyk2-JH1JH2 (P29597 580-1182 C936A/C1142A): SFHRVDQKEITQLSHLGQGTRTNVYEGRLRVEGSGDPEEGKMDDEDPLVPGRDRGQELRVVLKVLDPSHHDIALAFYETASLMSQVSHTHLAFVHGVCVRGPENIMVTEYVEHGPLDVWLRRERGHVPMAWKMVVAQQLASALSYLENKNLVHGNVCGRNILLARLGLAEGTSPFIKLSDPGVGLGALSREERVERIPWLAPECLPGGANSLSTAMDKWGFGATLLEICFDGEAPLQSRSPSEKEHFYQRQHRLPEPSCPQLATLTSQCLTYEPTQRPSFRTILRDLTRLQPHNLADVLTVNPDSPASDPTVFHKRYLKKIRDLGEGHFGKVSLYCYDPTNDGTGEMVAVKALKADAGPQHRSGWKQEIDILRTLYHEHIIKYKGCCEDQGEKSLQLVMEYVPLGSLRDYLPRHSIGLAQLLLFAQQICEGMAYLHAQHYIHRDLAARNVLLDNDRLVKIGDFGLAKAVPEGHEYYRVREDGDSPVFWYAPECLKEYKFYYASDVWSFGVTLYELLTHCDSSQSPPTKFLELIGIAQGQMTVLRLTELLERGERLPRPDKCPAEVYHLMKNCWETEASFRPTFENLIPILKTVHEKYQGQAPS
Excerpt: as §1, §2, §3, §4

[5] = tested on: IL-2 pSTAT5 (JAK1/JAK3); test: IL-2 pSTAT5 (JAK1/JAK3) cellular assay, AlphaLISA in PBMCs; assay type: cell-based; conditions: PBMC, IL-2 5 ng/mL
Procedure: The AlphaLISA assay (based on Alpha Technology from PerkinElmer) was performed by first plating freshly thawed PBMCs (Biological Specialty Corporation) in 384-well plates at 30,000 cells per 4 μL per well in HBSS (Hanks' Balanced Salt Solution) containing 0.1% IgG (immunoglobulin G)-free, protease-free BSA (bovine serum albumin) (Jackson ImmunoResearch Cat. No. 001-000-161). The cells were then treated with 2 μL/well of compounds diluted in DMSO at half-log titrated concentrations, with a highest test concentration of 10 μM and 0.5% final DMSO concentration, for thirty minutes at 37° C. […] The cellular reactions were terminated by the addition of 2 μL/well of lysis buffer (PerkinElmer Cat. No. ALSU-PST5-A10K) followed by an incubation of five minutes at room temperature. 5 μL/well of acceptor mix (PerkinElmer Cat. No. ALSU-PST5-A10K) was added to the cells and incubated in the dark for one hour at room temperature. Then, 5 μL/well of donor mix (PerkinElmer Cat. No. ALSU-PST5-A10K) was added to the cells and incubated in the dark overnight at room temperature. Finally, the plates were read on a PerkinElmer EnVision for detection of the time-resolved fluorescence signal. The percentage of IL-2-dependent pSTAT5 inhibition was determined at the compound test concentrations; and for each compound, a dose curve was generated and the IC50 was calculated. Compound IC50 was calculated by nonlinear regression, sigmoidal dose response analysis of the half-log dilution titration curve of the compound concentration vs. Alpha signal. The acronym “Alpha” stands for amplified luminescent proximity homogeneous assay; the Alpha signal is a luminescent/fluorescent signal.

Sequence of JAK3-JH1JH2 (P52333 512-1124): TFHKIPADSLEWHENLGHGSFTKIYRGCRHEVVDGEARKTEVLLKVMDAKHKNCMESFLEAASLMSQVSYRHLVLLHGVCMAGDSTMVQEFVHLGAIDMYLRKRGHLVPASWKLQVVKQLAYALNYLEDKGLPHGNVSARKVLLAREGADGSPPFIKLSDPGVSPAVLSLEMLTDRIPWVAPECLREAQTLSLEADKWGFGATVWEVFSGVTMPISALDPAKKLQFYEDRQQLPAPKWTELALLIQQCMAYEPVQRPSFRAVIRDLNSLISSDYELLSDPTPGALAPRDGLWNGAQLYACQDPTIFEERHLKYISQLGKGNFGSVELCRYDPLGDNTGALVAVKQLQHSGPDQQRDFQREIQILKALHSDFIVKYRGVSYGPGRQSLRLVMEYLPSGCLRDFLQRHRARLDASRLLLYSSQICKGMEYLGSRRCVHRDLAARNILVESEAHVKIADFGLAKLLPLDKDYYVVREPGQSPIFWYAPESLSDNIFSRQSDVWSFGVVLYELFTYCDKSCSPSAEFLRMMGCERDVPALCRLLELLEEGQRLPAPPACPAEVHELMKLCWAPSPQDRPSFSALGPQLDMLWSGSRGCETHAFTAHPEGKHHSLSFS

CC(C)(O)CNC(=O)Cc1nc2cnc3[nH]ccc3c2n1[C@H]1CC[C@H](CC#N)CC1 [Ex. 1, 2-(1-((1r,4r)-4-(Cyanomethyl)cyclohexyl)-1,6-dihydroimidazo[4,5-d]pyrrolo[2,3-b]pyridin-2-yl)-N-(2-hydroxy-2-methylpropyl)acetamide]
IC50 [1]: 92.2 nM | IC50 [2]: 0.4 nM | IC50 [3]: 8.6 nM | IC50 [4]: 7.4 nM | IC50 [5]: 21.6 nM

N#CC[C@H]1CC[C@H](n2c(-c3c[nH]cn3)nc3cnc4[nH]ccc4c32)CC1 [Ex. 2, 2-((1r,4r)-4-(2-(1H-Imidazol-4-yl)imidazo[4,5-d]pyrrolo[2,3-b]pyridin-1(6H)-yl)cyclohexyl)acetonitrile]
IC50 [4]: 1.5 nM | IC50 [5]: 9 nM

N#CC[C@H]1CC[C@H](n2c(CC(=O)NCC3CC3)nc3cnc4[nH]ccc4c32)CC1 [Ex. 3, 2-(1-((1r,4r)-4-(Cyanomethyl)cyclohexyl)-1,6-dihydroimidazo[4,5-d]pyrrolo[2,3-b]pyridin-2-yl)-N-(cyclopropylmethyl)acetamide]
IC50 [1]: 82.8 nM | IC50 [2]: 0.2 nM | IC50 [3]: 6.2 nM | IC50 [4]: 11.6 nM | IC50 [5]: 6.4 nM

N#CCCNC(=O)Cc1nc2cnc3[nH]ccc3c2n1[C@H]1CC[C@H](CC#N)CC1 [Ex. 4, N-(2-Cyanoethyl)-2-(1-((1r,4r)-4-(cyanomethyl)cyclohexyl)-1,6-dihydroimidazo[4,5-d]pyrrolo[2,3-b]pyridin-2-yl)acetamide]
IC50 [1]: 96.2 nM | IC50 [2]: 0.1 nM | IC50 [3]: 6.6 nM | IC50 [4]: 2.2 nM | IC50 [5]: 35.5 nM

N#CC[C@H]1CC[C@H](n2c(CC(=O)NC3CCOCC3)nc3cnc4[nH]ccc4c32)CC1 [Ex. 5, 2-(1-((1r,4r)-4-(Cyanomethyl)cyclohexyl)-1,6-dihydroimidazo[4,5-d]pyrrolo[2,3-b]pyridin-2-yl)-N-(tetrahydro-2H-pyran-4-yl)acetamide]
IC50 [1]: 23.1 nM | IC50 [2]: 0.3 nM | IC50 [3]: 2.1 nM | IC50 [4]: 4.1 nM | IC50 [5]: 6.4 nM

N#CC[C@H]1CC[C@H](n2c(CC(=O)NCC3CCOCC3)nc3cnc4[nH]ccc4c32)CC1 [Ex. 6, 2-(1-((1r,4r)-4-(Cyanomethyl)cyclohexyl)-1,6-dihydroimidazo[4,5-d]pyrrolo[2,3-b]pyridin-2-yl)-N-((tetrahydro-2H-pyran-4-yl)methyl)acetamide]
IC50 [1]: 28.2 nM | IC50 [2]: 0.1 nM | IC50 [3]: 1.4 nM | IC50 [4]: 1.1 nM | IC50 [5]: 6.7 nM

CC(C)(C#N)CNC(=O)Cc1nc2cnc3[nH]ccc3c2n1[C@H]1CC[C@H](CC#N)CC1 [Ex. 7, N-(2-Cyano-2-methylpropyl)-2-(1-((1r,4r)-4-(cyanomethyl)cyclohexyl)-1,6-dihydroimidazo[4,5-d]pyrrolo[2,3-b]pyridin-2-yl)acetamide]
IC50 [1]: 98.4 nM | IC50 [2]: 0.2 nM | IC50 [3]: 5.6 nM | IC50 [4]: 4.8 nM | IC50 [5]: 9.7 nM

N#CC[C@H]1CC[C@H](n2c(CC(=O)NCC3(O)CCC3)nc3cnc4[nH]ccc4c32)CC1 [Ex. 8, 2-(1-((1r,4r)-4-(Cyanomethyl)cyclohexyl)-1,6-dihydroimidazo[4,5-d]pyrrolo[2,3-b]pyridin-2-yl)-N-((1-hydroxycyclobutyl)methyl)acetamide]
IC50 [1]: 75.6 nM | IC50 [2]: 0.4 nM | IC50 [3]: 7 nM | IC50 [4]: 6.6 nM | IC50 [5]: 20.6 nM

N#CCC12CCC(NC(=O)Cc3nc4cnc5[nH]ccc5c4n3[C@H]3CC[C@H](CC#N)CC3)(CC1)C2 [Ex. 10, N-(4-(Cyanomethyl)bicyclo[2.2.1]heptan-1-yl)-2-(1-((1r, 4r)-4-(cyanomethyl)cyclohexyl)-1,6-dihydroimidazo[4,5-d]pyrrolo[2,3-b]pyridin-2-yl)acetamide]
IC50 [1]: 87.5 nM | IC50 [2]: 1 nM | IC50 [3]: 6.5 nM | IC50 [4]: 9 nM | IC50 [5]: 16.8 nM

N#CC[C@H]1CC[C@H](n2c(CC(=O)NCC3(O)CC3)nc3cnc4[nH]ccc4c32)CC1 [Ex. 12, 2-(1-((1r,4r)-4-(Cyanomethyl)cyclohexyl)-1,6-dihydroimidazo[4,5-d]pyrrolo[2,3-b]pyridin-2-yl)-N-((1-hydroxycyclopropyl)methyl)acetamide]
IC50 [1]: 101 nM | IC50 [2]: 0.9 nM | IC50 [3]: 9.4 nM | IC50 [4]: 8.7 nM | IC50 [5]: 13.9 nM
